# Results: a melting point compilation (Tetko et al.; mined from patent text by program, amines drawn as free bases though some values may be those of a salt)
row,SMILES,melting point [°C]
1,O=C1C=C(NC(=O)C(=O)c2cn(Cc3cccc(C(F)(F)F)c3)c3cc([N+](=O)[O-])ccc23)CO1,279 to 281
2,CCCCC(C(=O)OCC)(C(=O)OCC)c1nc(C)nc2c1c(SC)nn2-c1c(Cl)cc(Cl)cc1Cl,148 to 150
3,CC1(Cc2ccc(Br)cc2)C(=O)N(c2cc(Cl)cc(Cl)c2)c2ccccc21 (stereo not given),129 to 130
4,Cc1cc(CCCCCCCOc2ccc(C(=O)OC(C)C)cc2)on1,45 to 46
5,CCCCc1nc2cccc(CC(=O)O)c2n1Cc1ccccc1Cl,216 to 217
6,CC1Sc2c(C(=O)O)c(=O)c3cc(F)c(N4CCOCC4)cc3n21 (stereo not given),192 to 198
7,COC(=O)[C@H](CC(C)C)NC(=O)[C@@H](CCSC)NC(=O)OC(C)(C)C,61 to 64
8,COC(=O)c1ccc2c(c1)C(=O)C(C)C(c1ccccc1)=N2 (stereo not given),> 300
9,CCCCCCCCNc1ccc(-c2cc3ccccc3o2)cc1,87 to 90
10,C[C@@]1(C(=O)O)Oc2ccccc2NC1=O,168 to 171
11,NC(=S)c1cn(COCCO)c2ncnc(N)c12,186 to 188
12,O=Cc1cc(=O)n2ccsc2n1,184 to 186
13,CCC1CCc2c(sc3cc(N)ccc3c2=O)C1 (stereo not given),187
14,Nn1c(C(F)(F)F)ccc(-c2ccc(Cl)cc2Cl)c1=O,98 to 100
15,O=C(Oc1ccc(Cl)cc1)n1c2c(c(=O)n(C3CCCCO3)c1=O)CCC2 (stereo not given),126
16,CCOC(=O)c1ncn2c1CN=C(c1ccccn1)c1cc(C#C[Si](C)(C)C)ccc1-2,205 to 206
17,OC1c2cc(OCc3ccc4cc(F)ccc4n3)ccc2OCC1Cc1cncnc1 (stereo not given),188 to 191
18,O=C1Nc2ccccc2C12CCCCC2,164 to 165
19,CCOc1cc([C@@H](CS(C)(=O)=O)N2Cc3cccc(NCC(C)C)c3C2=O)ccc1OC,122 to 124
20,CNC(=NC#N)NCc1cccnc1,183 to 184

row,SMILES,melting point [°C]
1,CCOC(=O)c1ccc2[nH]cc(C3CCN(C)CC3)c2c1,155 to 157
2,CC(CCCn1cc(CCO)c(=O)[nH]c1=O)C(=O)O (stereo not given),105
3,CN(CCOc1cccc2cc(S(=O)(=O)c3ccccc3)n(C(=O)OC(C)(C)C)c12)C(=O)OC(C)(C)C,118 to 120
4,CC(C)Oc1cccc(Nc2cc(-c3c[nH]nc3-c3ccccn3)ccn2)c1,218
5,O=C(Nc1ccc2[nH]c(=O)oc2c1)C(=O)N1CCC(Cc2ccc(O)cc2)CC1,235 to 239
6,O=C(NCC1CCCCCC1)NCC1CCCCCC1,106 to 108
7,CC(C)n1cnc2c(NCc3cccc(O)c3O)nc(NC[C@@H](C)O)nc21,182 to 183
8,Cc1ccc(N2C(=O)C(O)=C(C(=O)c3ccc(C(C)C)cc3)C2c2ccc(Cn3cccn3)cc2)nn1 (stereo not given),263
9,CCCc1nc2cc3c(cc2[nH]1)NC(=O)C3(C)C(=O)OCC (stereo not given),258 to 261
10,CS(=O)CCC(NS(=O)(=O)c1ccc2c(c1)Sc1ccccc1O2)C(=O)O (stereo not given),160 to 170
11,O=C1c2cnc(N3CCN(Cc4ccccc4)CC3)nc2CN1C1CCCCC1,176 to 178
12,CC(C)(C)OC(=O)c1ncn2c1cc(C(=O)N1CCNCC1)c1cc(Cl)ccc12,239 to 240
13,COC(=O)NNC(=O)c1ccc(Cl)cc1,160
14,CCCCCCCCC(Cc1cccnc1)(C(=O)O)S(=O)(=O)c1ccc(OC)cc1 (stereo not given),159
15,Cn1cc(C(=O)NCc2ccc(Cl)cc2)c(=O)c2cc(I)sc21,236 to 237
16,CCOc1nn(-c2ccc(C(F)(F)F)cn2)cc1CCCOc1ccc(CCC(=O)O)cc1OC(C)C,93 to 94
17,Nc1ccc2c(=O)n3c(nc2c1)C(=Cc1ccccc1)CC3,268 to 270
18,CCN(CC)C(=O)n1cnc(S(=O)(=O)C(F)F)n1,58 to 59
19,Cc1ccc(-c2c(O)nn(CCO[Si](C)(C)C(C)(C)C)c2N)cc1,194 to 195
20,Nc1ccc(CS(=O)(=O)CCO)c(CS(=O)(=O)CCO)c1,168 to 171
